Activity calls are given as the source filed them. No cut-off for these calls is given here.
Legend:
TAK1/TAB1 = TAK1/TAB1 (Homo sapiens, UniProt O43318); experiment: Inhibition of N-terminal His-tagged human TAK1 (1 to 303 amino acids)/human TAB1 (437 to 504 amino acids) expressed in baculovirus expression system using fluorescence-labeled substrate by off-chip mobility shift assay
[1] = target: T1, Mitogen-activated protein kinase kinase kinase 7 (Homo sapiens) (UniProt O43318); experiment: Inhibition of TAK1 (unknown origin) at 1 uM by LanthaScreen Eu kinase binding assay relative to control
T1 sequence (whole entry): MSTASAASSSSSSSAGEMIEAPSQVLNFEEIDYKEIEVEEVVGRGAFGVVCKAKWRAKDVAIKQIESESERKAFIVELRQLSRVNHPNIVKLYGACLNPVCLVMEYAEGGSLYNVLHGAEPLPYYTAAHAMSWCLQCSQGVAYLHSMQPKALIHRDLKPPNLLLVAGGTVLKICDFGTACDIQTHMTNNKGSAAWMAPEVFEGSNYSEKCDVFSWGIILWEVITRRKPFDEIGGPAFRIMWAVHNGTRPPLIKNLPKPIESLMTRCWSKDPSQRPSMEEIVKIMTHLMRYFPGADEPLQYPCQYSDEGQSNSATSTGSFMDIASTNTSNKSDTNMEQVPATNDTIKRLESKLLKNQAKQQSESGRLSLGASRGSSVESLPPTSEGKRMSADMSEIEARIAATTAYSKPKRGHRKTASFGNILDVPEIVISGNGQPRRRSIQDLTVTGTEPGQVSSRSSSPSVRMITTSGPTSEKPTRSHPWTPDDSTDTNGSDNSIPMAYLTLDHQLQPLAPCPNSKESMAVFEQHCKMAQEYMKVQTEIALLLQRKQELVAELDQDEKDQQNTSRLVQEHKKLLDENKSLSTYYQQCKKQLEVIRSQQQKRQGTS

[2] = target: T1, Mitogen-activated protein kinase kinase kinase 7 (Homo sapiens); experiment: Inhibition of TAK1 (unknown origin) at 0.1 uM by LanthaScreen Eu kinase binding assay relative to control
SK-CO-1 = experiment: Growth inhibition of human SKCO1 cells after 96 hrs by SRB assay; format: functional, cell-based; conditions: SK-CO-1, 96 h
SW-620 [3] = experiment: Growth inhibition of human SW620 cells after 96 hrs by SRB assay; format: functional, cell-based; conditions: SW-620, 96 h
LoVo = experiment: Growth inhibition of human LoVo cells after 96 hrs by SRB assay; format: functional, cell-based
SW-620 [4] = experiment: Induction of apoptosis in human SW620 cells assessed as Caspase-3 activity at 10 uM after 24 hrs by Caspase-3/7 reagent-based fluorescence assay; format: functional, cell-based
[5] = target: T1, Mitogen-activated protein kinase kinase kinase 7 (Homo sapiens); experiment: Inhibition of TAK1 phosphorylation in human SW620 cells after 24 hrs by immunoblotting analysis; format: cell-based
[6] = Stability in human liver microsomes assessed as parent compound remaining after 60 mins in presence of NADPH by HPLC analysis; format: ADME, Microsome; conditions: read-out: Stability
[7] = Stability in mouse liver microsomes assessed as parent compound remaining after 60 mins in presence of NADPH by HPLC analysis; format: ADME, Microsome; conditions: read-out: Stability
[8] = Stability in human plasma assessed as parent compound remaining after 6 hrs by LC-MS/MS analysis; format: ADME, cell-free; conditions: read-out: Stability
[9] = Stability in mouse plasma assessed as parent compound remaining after 6 hrs by LC-MS/MS analysis; format: ADME, cell-free; conditions: read-out: Stability
[10] = AUC (0 to 7 hrs) in ICR mouse at 8.2 mg/kg, po administered as single dose or 3 mg/kg, iv by LC-MS/MS analysis; format: ADME, organism-based; conditions: in vivo
[11] = Cmax in ICR mouse at 8.2 mg/kg, po administered as single dose or 3 mg/kg, iv by LC-MS/MS analysis; format: ADME, organism-based; conditions: in vivo
[12] = Half life in ICR mouse at 8.2 mg/kg, po administered as single dose or 3 mg/kg, iv by LC-MS/MS analysis; format: ADME, organism-based; conditions: in vivo
[13] = Oral bioavailability in ICR mouse at 8.2 mg/kg administered as single dose by LC-MS/MS analysis; format: ADME, organism-based; conditions: in vivo
Cytochrome P450 3A4 = Cytochrome P450 3A4 (Homo sapiens, UniProt P08684); experiment: Inhibition of CYP3A4 in liver microsomes (unknown origin) using ketoconazole as […] preincubated for 5 mins followed by NADPH addition and measured after 15 mins by LC-MS/MS analysis; format: ADME
Cytochrome P450 3A4, sequence (P08684 whole entry): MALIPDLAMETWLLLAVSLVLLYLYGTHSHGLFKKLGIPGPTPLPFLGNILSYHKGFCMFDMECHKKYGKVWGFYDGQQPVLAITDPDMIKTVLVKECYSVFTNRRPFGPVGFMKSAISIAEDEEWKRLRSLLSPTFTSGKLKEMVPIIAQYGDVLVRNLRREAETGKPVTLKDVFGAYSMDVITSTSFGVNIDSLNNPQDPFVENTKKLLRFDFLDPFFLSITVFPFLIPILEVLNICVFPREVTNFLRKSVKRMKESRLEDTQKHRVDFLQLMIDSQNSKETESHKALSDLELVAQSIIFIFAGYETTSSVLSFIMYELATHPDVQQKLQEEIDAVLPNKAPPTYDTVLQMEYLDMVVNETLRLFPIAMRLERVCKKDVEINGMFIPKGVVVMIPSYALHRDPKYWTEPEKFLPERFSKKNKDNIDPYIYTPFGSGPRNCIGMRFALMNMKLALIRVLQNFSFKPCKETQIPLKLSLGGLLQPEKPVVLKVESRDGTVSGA

Cytochrome P450 1A2 = Cytochrome P450 1A2 (Homo sapiens, UniProt P05177); experiment: Inhibition of CYP1A2 in liver microsomes (unknown origin) using alpha-naphthoflavone as […] preincubated for 5 mins followed by NADPH addition and measured after 15 mins by LC-MS/MS analysis; format: ADME
Cytochrome P450 1A2, sequence (P05177 whole entry): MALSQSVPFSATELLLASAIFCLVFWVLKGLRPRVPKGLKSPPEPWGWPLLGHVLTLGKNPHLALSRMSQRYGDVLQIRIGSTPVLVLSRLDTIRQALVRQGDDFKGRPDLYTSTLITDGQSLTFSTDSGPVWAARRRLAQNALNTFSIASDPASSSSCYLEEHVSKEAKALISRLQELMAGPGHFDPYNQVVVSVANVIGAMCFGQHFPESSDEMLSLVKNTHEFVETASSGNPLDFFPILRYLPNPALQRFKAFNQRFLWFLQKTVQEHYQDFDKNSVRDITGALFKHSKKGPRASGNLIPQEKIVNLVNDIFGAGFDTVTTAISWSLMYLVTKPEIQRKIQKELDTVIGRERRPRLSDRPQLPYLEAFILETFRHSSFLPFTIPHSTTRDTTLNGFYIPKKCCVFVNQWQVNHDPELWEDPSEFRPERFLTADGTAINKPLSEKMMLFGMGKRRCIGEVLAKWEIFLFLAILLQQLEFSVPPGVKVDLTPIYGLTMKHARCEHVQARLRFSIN

Cytochrome P450 2C9 = Cytochrome P450 2C9 (Homo sapiens, UniProt P11712); experiment: Inhibition of CYP2C9 in liver microsomes (unknown origin) using sulfaphenazole as […] preincubated for 5 mins followed by NADPH addition and measured after 15 mins by LC-MS/MS analysis; format: ADME
Cytochrome P450 2C9, sequence (P11712 whole entry): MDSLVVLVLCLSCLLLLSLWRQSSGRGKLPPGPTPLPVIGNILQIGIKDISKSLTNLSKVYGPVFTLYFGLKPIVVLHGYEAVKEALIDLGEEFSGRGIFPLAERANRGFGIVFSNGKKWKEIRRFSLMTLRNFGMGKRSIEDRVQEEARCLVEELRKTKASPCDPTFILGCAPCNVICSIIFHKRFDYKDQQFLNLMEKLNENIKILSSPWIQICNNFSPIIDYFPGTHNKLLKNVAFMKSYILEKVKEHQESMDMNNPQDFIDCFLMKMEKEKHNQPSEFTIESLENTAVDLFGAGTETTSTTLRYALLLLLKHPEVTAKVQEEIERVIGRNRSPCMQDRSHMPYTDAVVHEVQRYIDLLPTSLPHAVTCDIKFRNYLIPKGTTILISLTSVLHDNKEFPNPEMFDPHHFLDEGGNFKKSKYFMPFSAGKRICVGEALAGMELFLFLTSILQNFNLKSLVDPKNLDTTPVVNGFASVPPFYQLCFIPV

Cytochrome P450 2C19 = Cytochrome P450 2C19 (Homo sapiens, UniProt P33261); experiment: Inhibition of CYP2C19 in liver microsomes (unknown origin) using (+/-) N-3-benzylnirvanol as […] preincubated for 5 mins followed by NADPH addition and measured after 15 mins by LC-MS/MS analysis; format: ADME
Cytochrome P450 2B6 = Cytochrome P450 2B6 (Homo sapiens, UniProt P20813); experiment: Inhibition of CYP2B6 in liver microsomes (unknown origin) using clopidogrel as […] preincubated for 5 mins followed by NADPH addition and measured after 15 mins by LC-MS/MS analysis; format: ADME
Cytochrome P450 2B6, sequence (P20813 whole entry): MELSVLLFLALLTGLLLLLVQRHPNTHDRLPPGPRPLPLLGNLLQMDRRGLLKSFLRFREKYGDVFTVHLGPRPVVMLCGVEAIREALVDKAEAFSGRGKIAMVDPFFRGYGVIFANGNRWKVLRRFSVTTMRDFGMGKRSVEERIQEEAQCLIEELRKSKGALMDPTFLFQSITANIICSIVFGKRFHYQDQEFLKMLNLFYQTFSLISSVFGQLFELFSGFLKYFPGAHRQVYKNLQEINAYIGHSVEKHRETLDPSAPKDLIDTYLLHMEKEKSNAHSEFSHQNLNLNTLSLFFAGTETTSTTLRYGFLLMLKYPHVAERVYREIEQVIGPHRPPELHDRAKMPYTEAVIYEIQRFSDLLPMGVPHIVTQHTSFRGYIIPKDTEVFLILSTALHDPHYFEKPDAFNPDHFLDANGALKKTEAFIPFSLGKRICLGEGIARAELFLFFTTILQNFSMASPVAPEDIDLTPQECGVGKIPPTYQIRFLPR

[14] = target: Voltage-gated inwardly rectifying potassium channel KCNH2 (Homo sapiens, UniProt Q12809); experiment: Binding affinity to human ERG by fluorescence polarization assay
[15] = target: Serine/threonine-protein kinase B-raf (Homo sapiens) (UniProt P15056); experiment: Inhibition of BRAF (unknown origin) at 1 uM by LanthaScreen Eu kinase binding assay relative to control
Serine/threonine-protein kinase B-raf (Homo sapiens), sequence (P15056 whole entry): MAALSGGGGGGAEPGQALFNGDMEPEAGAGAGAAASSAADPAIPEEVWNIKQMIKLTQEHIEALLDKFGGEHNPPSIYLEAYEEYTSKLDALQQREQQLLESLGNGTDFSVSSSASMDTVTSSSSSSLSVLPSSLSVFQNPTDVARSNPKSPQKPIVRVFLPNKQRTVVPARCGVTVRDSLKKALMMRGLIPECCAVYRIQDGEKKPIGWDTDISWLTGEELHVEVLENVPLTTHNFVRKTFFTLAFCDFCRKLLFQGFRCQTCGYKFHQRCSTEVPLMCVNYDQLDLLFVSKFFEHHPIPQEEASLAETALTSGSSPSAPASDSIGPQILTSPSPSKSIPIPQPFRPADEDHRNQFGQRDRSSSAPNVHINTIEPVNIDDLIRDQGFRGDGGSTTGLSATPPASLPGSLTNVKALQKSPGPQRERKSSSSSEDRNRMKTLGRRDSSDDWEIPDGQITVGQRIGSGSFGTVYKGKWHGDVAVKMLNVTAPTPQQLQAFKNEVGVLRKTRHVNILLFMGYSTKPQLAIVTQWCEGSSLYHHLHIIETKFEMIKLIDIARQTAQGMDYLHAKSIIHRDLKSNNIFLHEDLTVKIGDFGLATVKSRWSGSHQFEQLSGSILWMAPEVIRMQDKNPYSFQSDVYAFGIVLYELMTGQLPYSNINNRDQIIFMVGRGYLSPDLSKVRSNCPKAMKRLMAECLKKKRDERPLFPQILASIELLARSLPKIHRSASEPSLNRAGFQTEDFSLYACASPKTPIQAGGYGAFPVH

[16] = target: Tyrosine-protein kinase BTK (Homo sapiens) (UniProt Q06187); experiment: Inhibition of BTK (unknown origin) at 1 uM by LanthaScreen Eu kinase binding assay relative to control
[17] = target: CDK2/Cyclin A2 (Homo sapiens) (UniProt P24941+P20248); experiment: Inhibition of CDK2/cyclin A (unknown origin) at 1 uM by LanthaScreen Eu kinase binding assay relative to control; format: protein-complex assay
[18] = target: Epidermal growth factor receptor (Homo sapiens) (UniProt P00533); experiment: Inhibition of EGFR (unknown origin) at 1 uM by LanthaScreen Eu kinase binding assay relative to control
[19] = target: Glycogen synthase kinase-3 beta (Homo sapiens) (UniProt P49841); experiment: Inhibition of GSK3b (unknown origin) at 1 uM by LanthaScreen Eu kinase binding assay relative to control
[20] = target: Inhibitor of nuclear factor kappa-B kinase subunit beta (Homo sapiens) (UniProt O14920); experiment: Inhibition of IKKbeta (unknown origin) at 1 uM by LanthaScreen Eu kinase binding assay relative to control
[21] = target: Mitogen-activated protein kinase 14 (Homo sapiens) (UniProt Q16539); experiment: Inhibition of […] (unknown origin) at 1 uM by LanthaScreen Eu kinase binding assay relative to control
Mitogen-activated protein kinase 14 (Homo sapiens), sequence (Q16539 whole entry): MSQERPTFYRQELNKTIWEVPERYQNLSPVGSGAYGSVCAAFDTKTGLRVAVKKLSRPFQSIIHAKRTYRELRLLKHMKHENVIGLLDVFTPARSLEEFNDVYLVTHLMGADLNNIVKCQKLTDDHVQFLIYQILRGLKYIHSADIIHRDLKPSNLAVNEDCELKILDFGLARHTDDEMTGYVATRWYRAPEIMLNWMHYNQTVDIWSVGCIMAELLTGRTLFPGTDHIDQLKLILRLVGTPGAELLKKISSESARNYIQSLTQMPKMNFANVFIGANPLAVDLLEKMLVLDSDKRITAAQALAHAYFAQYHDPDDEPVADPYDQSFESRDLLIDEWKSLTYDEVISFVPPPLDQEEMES

[22] = target: High affinity nerve growth factor receptor (Homo sapiens) (UniProt P04629); experiment: Inhibition of NTRK1 (unknown origin) at 1 uM by LanthaScreen Eu kinase binding assay relative to control
[23] = target: Platelet-derived growth factor receptor alpha (Homo sapiens) (UniProt P16234); experiment: Inhibition of PDGFRalpha (unknown origin) at 1 uM by LanthaScreen Eu kinase binding assay relative to control
Platelet-derived growth factor receptor alpha (Homo sapiens), sequence (P16234 whole entry): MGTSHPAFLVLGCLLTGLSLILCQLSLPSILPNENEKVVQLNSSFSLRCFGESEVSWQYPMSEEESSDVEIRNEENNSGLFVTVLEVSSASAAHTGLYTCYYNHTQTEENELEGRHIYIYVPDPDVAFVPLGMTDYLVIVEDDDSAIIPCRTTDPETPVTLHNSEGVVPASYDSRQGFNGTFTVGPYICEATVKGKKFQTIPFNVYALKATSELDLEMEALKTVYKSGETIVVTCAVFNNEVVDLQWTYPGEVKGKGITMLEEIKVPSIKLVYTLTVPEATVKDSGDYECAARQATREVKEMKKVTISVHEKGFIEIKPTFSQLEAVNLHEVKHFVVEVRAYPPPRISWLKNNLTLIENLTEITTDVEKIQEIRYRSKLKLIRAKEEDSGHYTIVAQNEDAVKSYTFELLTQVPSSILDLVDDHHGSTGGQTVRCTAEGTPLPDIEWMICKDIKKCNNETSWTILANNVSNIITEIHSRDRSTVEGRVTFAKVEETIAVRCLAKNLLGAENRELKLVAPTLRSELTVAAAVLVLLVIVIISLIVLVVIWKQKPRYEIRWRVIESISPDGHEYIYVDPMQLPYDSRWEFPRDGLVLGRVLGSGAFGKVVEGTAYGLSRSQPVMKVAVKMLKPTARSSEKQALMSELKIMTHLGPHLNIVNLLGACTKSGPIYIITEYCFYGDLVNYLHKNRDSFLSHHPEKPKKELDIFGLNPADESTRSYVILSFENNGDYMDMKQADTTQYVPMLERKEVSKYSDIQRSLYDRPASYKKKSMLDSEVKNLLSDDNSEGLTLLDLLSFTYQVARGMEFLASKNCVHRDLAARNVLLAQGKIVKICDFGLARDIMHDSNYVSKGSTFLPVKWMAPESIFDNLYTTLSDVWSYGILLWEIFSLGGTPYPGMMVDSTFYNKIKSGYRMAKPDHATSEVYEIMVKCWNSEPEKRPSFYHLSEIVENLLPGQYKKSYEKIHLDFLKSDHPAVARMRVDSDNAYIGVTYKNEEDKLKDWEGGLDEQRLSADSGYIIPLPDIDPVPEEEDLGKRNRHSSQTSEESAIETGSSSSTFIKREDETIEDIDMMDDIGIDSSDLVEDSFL

[24] = target: Ribosomal protein S6 kinase alpha-1 (Homo sapiens) (UniProt Q15418); experiment: Inhibition of RPS6KA1 (unknown origin) at 1 uM by LanthaScreen Eu kinase binding assay relative to control
Ribosomal protein S6 kinase alpha-1 (Homo sapiens), sequence (Q15418 whole entry): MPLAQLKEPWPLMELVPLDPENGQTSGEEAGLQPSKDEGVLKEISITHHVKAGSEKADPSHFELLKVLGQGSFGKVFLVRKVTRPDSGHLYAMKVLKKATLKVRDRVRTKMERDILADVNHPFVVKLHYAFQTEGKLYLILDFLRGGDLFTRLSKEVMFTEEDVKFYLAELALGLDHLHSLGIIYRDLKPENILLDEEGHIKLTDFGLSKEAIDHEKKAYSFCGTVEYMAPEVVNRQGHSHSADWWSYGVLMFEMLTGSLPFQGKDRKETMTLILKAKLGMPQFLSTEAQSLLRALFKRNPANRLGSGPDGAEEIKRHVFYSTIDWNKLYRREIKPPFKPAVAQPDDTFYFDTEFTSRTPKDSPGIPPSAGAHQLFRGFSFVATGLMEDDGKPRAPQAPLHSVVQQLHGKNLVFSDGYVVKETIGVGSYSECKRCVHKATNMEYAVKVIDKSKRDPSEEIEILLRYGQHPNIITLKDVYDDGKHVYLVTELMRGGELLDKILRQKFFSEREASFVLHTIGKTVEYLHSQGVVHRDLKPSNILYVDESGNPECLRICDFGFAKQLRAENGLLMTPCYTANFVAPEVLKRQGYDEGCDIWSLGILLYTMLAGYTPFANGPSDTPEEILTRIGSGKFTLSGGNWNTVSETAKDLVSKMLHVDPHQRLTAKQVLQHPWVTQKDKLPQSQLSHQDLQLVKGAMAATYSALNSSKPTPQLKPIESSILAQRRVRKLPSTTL

SW-620 [25] = experiment: Antitumor activity against human SW620 cells xenografted in CAnN.Cg-Foxnlnu/Crljbgi nude mouse assessed as tumor growth inhibition at 100 mg/kg, po dosed daily for 14 consecutive days; format: functional, organism-based
[26] = Toxicity in CAnN.Cg-Foxnlnu/Crljbgi nude mouse xenografted with human SW620 cells assessed as weight loss at 100 mg/kg, po dosed daily for 14 consecutive days; format: organism-based; conditions: in vivo
[27] = Toxicity in CAnN.Cg-Foxnlnu/Crljbgi nude mouse xenografted with human SW620 cells at 100 mg/kg, po dosed daily for 14 consecutive days; format: organism-based; conditions: in vivo

Cc1cc(NC(=O)Nc2cc(C(C)(C)C)nn2-c2ccccc2)ccc1-c1cnc(NC2CC2)c2nccn12
IC50 (TAK1/TAB1): 37 nM
inhibition [1]: 98%
inhibition [2]: 56%
IC50 (SK-CO-1): 274 nM
IC50 (SW-620 [3]): 330 nM
IC50 (LoVo): 391 nM
Activity (SW-620 [4]): Active
inhibition [5]: Dose-dependent effect
remaining at 1 h [6]: 37%
remaining at 1 h [7]: 44%
remaining at 6 h [8]: 90%
remaining at 6 h [9]: 88%
AUC(0-t) [10]: 3140 ng·h/mL
Cmax [11]: 1930 ng/mL
half-life [12]: 1.6 h
bioavailability [13]: 25.2%
IC50 (Cytochrome P450 3A4): 3520 nM
IC50 (Cytochrome P450 1A2): > 25000 nM
IC50 (Cytochrome P450 2C9): 3500 nM
IC50 (Cytochrome P450 2C19): > 25000 nM
IC50 (Cytochrome P450 2B6): > 25000 nM
IC50 [14]: > 50000 nM
inhibition [15]: 37%
inhibition [16]: 0%
inhibition [17]: 1%
inhibition [18]: 45%
inhibition [19]: 51%
inhibition [20]: 0%
inhibition [21]: 82%
inhibition [22]: 82%
inhibition [23]: 88%
inhibition [24]: 4%
Activity (SW-620 [25]): Active
Activity [26]: Non-Toxic
Activity [27]: Non-Toxic
